Measurements published in PubChem BioAssay (NCI).
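1) Cells in 96-well plates. 2) Compound, 48 h, 5 concentrations. 3) Linear interpolation between surrounding doses. 4) Unreached endpoint = highest concentration. The concentration for full growth arrest is given as TGI.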

Columns and labels:
Assay in all cases: NCI-60 cell line screen, 48 h
HCT-116 colon = test system: HCT-116 colon
HL-60(TB) leukemia = test system: HL-60(TB) leukemia
IGROV1 ovarian = test system: IGROV1 ovarian
KM12 colon = test system: KM12 colon
LOX IMVI melanoma = test system: LOX IMVI melanoma
M14 melanoma = test system: M14 melanoma
MDA-MB-231 breast = test system: MDA-MB-231 breast
MDA-MB-435 = test system: MDA-MB-435
NCI-H23 lung = test system: NCI-H23 lung
NCI-H460 lung = test system: NCI-H460 lung
NCI-H522 lung = test system: NCI-H522 lung
NCI/ADR-RES ovarian = test system: NCI/ADR-RES ovarian
OVCAR-8 ovarian = test system: OVCAR-8 ovarian
SF-539 CNS = test system: SF-539 CNS
SNB-75 CNS = test system: SNB-75 CNS
SW-620 colon = test system: SW-620 colon
T-47D breast = test system: T-47D breast
TK-10 renal = test system: TK-10 renal

SMILES | TGI (HCT-116 colon) [µM] | TGI (HL-60(TB) leukemia) [µM] | TGI (IGROV1 ovarian) [µM] | TGI (KM12 colon) [µM] | TGI (LOX IMVI melanoma) [µM] | TGI (M14 melanoma) [µM] | TGI (MDA-MB-231 breast) [µM] | TGI (MDA-MB-435) [µM] | TGI (NCI-H23 lung) [µM] | TGI (NCI-H460 lung) [µM] | TGI (NCI-H522 lung) [µM] | TGI (NCI/ADR-RES ovarian) [µM] | TGI (OVCAR-8 ovarian) [µM] | TGI (SF-539 CNS) [µM] | TGI (SNB-75 CNS) [µM] | TGI (SW-620 colon) [µM] | TGI (T-47D breast) [µM] | TGI (TK-10 renal) [µM]
CCOC(=O)N1CC2(C(=O)OC)C=CC1C(C(=O)OC)C2 (configuration not stated) | > 100 | > 100 | > 100 | > 100 | > 100 | > 100 | > 100 | > 100 | > 100 | > 100 | > 100 | > 100 | > 100 | > 100 | > 100 | > 100 | > 100 | > 100
Nc1ccn([C@H]2CO[C@@H](CO)O2)c(=O)n1 | > 100 | > 67.2 | > 100 | > 100 | > 100 | 19.1 | > 100 | > 100 | > 100 | > 100 | > 100 | > 100 | > 100 | 68.4 | > 100 | > 100 | > 100 | > 100
OC(c1ccc(F)cc1)C(F)(F)c1nc(-c2ccccc2)no1 (configuration not stated) | 36.7 | 48.7 | > 100 | – | > 100 | 32.7 | 42.8 | 35.6 | 74.7 | 74.7 | > 100 | > 100 | > 100 | – | – | 58.9 | 68.3 | > 100
Brc1ccccc1/C=C\C1(c2ccccc2)OCCO1 | 11.9 | > 52.3 | 29.3 | 7.17 | 11.6 | 25.6 | 25.4 | 24.6 | 20.5 | 34.2 | 22.6 | 32.7 | 24.5 | 25.7 | 28.6 | – | 31.4 | 31.7
C/C(=N\Nc1nc2ccccc2[nH]1)c1ccncn1 | 26.8 | 0.054 | 43.8 | 35.9 | > 42.5 | – | > 100 | > 100 | > 33.3 | > 100 | – | 4.54 | > 87.6 | > 100 | > 74.5 | > 100 | > 100 | > 100
CN(C)C(=S)N/N=C\C(=N/NC(=S)N(C)C)c1ccccc1 | > 46.5 | – | > 48.2 | > 100 | > 100 | > 100 | > 100 | > 100 | > 45.4 | > 100 | 9.86 | > 25.1 | > 100 | > 100 | > 53.7 | > 100 | 4.77 | > 100
CCOC(=O)C1=C(OS(=O)(=O)C(F)(F)F)CCCC1 | – | > 100 | > 100 | > 100 | > 100 | > 100 | > 100 | > 100 | > 100 | > 100 | > 100 | > 100 | > 100 | > 100 | > 100 | > 100 | > 100 | > 100
COC(=O)c1cc(C)n2c1CS[C@@H]2c1ccccc1 | > 100 | > 100 | > 100 | > 100 | > 100 | 73.4 | > 100 | 79 | > 100 | – | 82 | 87 | > 100 | – | 81.3 | > 100 | 93.1 | > 100
C/C(O)=C(/C=N\C(=S)Nc1ccc(Cl)c(Cl)c1)C(=O)Nc1ccccc1C | > 100 | 60.1 | > 100 | > 100 | > 100 | > 100 | > 100 | > 100 | 76.8 | > 100 | – | 61.1 | 66.3 | > 100 | 66.3 | > 100 | 45.7 | > 100
Cc1[nH]c2ncn3ncnc3c2c1Cc1ccccc1 | > 100 | > 100 | > 100 | > 100 | – | > 100 | > 100 | > 100 | > 100 | > 100 | > 100 | > 100 | > 100 | > 100 | > 100 | > 100 | > 100 | > 100
O=c1[nH]c(=O)n(C2CC(O)C(COP(=O)(O)OC3CC(n4cc(F)c(=O)[nH]c4=O)OC3COP(=O)(O)OC3CC(n4cc(F)c(=O)[nH]c4=O)OC3COP(=O)(O)OC3CC(n4cc(F)c(=O)[nH]c4=O)OC3COP(=O)(O)OC3CC(n4cc(F)c(=O)[nH]c4=O)OC3COP(=O)(O)OC3CC(n4cc(F)c(=O)[nH]c4=O)OC3COP(=O)(O)OC3CC(n4cc(F)c(=O)[nH]c4=O)OC3COP(=O)(O)OC3CC(n4cc(F)c(=O)[nH]c4=O)OC3COP(=O)(O)OC3CC(n4cc(F)c(=O)[nH]c4=O)OC3COP(=O)(O)OC3CC(n4cc(F)c(=O)[nH]c4=O)OC3CO)O2)cc1F (configuration not stated) | > 50 | > 50 | > 50 | > 50 | > 50 | > 50 | > 50 | > 50 | > 50 | – | – | > 50 | > 50 | < 0.005 | > 50 | > 50 | > 50 | > 50
CCOC(=O)C1(Cc2ccccc2)Cc2cc3c(cc2C1=O)CCC3 (configuration not stated) | > 100 | > 100 | > 100 | > 100 | > 100 | > 100 | > 100 | > 100 | > 100 | > 100 | – | > 100 | > 100 | > 100 | > 100 | > 100 | > 100 | > 100
CC1CC(=O)N2CCCNC2=C1C#N (configuration not stated) | > 100 | – | > 100 | > 100 | > 100 | > 100 | > 100 | > 100 | > 100 | > 100 | > 100 | > 100 | > 100 | > 100 | > 100 | > 100 | > 100 | > 100
Cn1c(=O)nc2n(CCO)ccnc-2c1=O | > 100 | – | > 100 | > 100 | > 100 | > 100 | > 100 | > 100 | > 100 | > 100 | > 100 | > 100 | > 100 | > 100 | > 100 | > 100 | > 100 | > 100
NC(=O)Cc1ncn(-c2ccccc2)n1 | > 100 | > 100 | > 100 | > 100 | > 100 | > 100 | > 100 | > 100 | > 100 | – | > 100 | > 100 | > 100 | > 100 | > 100 | > 100 | > 100 | > 100
O=C(Nc1ccc(Cl)c(Cl)c1)C(=O)C(C1OC(=O)c2ccccc21)[N+](=O)[O-] (configuration not stated) | > 100 | – | > 100 | > 100 | > 100 | > 100 | > 100 | > 100 | > 100 | > 100 | > 100 | > 100 | > 100 | > 100 | > 100 | > 100 | > 100 | > 100
CC1=NN(C(=O)CC(=O)Nc2ccccc2C)C(=O)C1N=Nc1ccc(S(=O)(=O)c2ccc(N=NC3C(=O)N(C(=O)CC(=O)Nc4ccccc4C)N=C3C)cc2)cc1 (configuration not stated) | > 100 | > 100 | > 100 | > 100 | > 100 | > 100 | > 100 | > 100 | > 100 | > 100 | > 100 | > 100 | > 100 | > 100 | > 100 | – | > 100 | > 100
COc1ccc(/C=C/C(=O)c2nc3ccccc3[nH]2)cc1 | 18.6 | > 29.7 | 25.9 | 19.8 | 28.2 | > 59.1 | 48.9 | > 100 | – | 47.5 | 32.5 | 53.5 | 51.1 | 26.7 | 57.4 | 49.1 | 53.7 | 47.2
CC1(C)CC(=O)C(CC(C(=O)C(=O)Nc2cc(C(F)(F)F)ccc2Cl)C(=O)c2ccco2)C(=O)C1 (configuration not stated) | > 100 | > 100 | > 100 | > 100 | > 100 | > 100 | > 100 | > 100 | > 100 | > 100 | > 100 | > 100 | > 100 | > 100 | – | > 100 | > 100 | > 100
CCN(CC)CCCC(C)NC(=O)c1cc(-c2nccn2C)nc2ccc(C)cc12 (configuration not stated) | > 100 | > 100 | > 100 | > 100 | > 100 | > 100 | > 100 | > 100 | > 100 | > 100 | – | > 100 | > 100 | > 100 | > 100 | > 100 | > 100 | > 100
